Laboratory results: ChEMBL document CHEMBL1201862, “PubChem BioAssay data set” (2004)
Activity calls are given as the source filed them.

Tests used:
[1] = target: FAD-linked sulfhydryl oxidase ALR (Homo sapiens, UniProt P55789); assay: inhibitors of human ALR sulfhydryl oxidase, dose response, biochemical, H2O2 detection, luminescence, cherry-pick (AID 493248)
[2] = target: Large T antigen (Simian virus 40, UniProt P03070); type: functional, Betapolyomavirus macacae;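 further: Confirmatory-stage PubChem screen for compounds that inhibit SV40 T antigen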
[3] = tested on: Streptococcus; assay: Group A Streptococcus viability loss, dose response, counter-screen for streptokinase expression inhibitor project, luminescence, BacTiterGlo (AID 1915); type: functional, organism-based;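 further: potency for reduction of bacterial viability or growth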
[4] = inhibitors of intracellular T. cruzi replication, confirmation, NIH3T3 host cells, beta-gal luminescence (AID 2044); type: functional, cell-based;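 further: intracellular parasites grown in NIH/3T3 mouse fibroblasts as host cells; luminescent beta-galactosidase reporter signal from transgenic T. cruzi replicating inside host cells; inhibitors lower the luminescence signal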
[5] = tested on: Streptococcus sp. 'group A'; assay: growth inhibition of control SK(-) GAS strain, dose response, counter-screen for streptokinase expression inhibitor project, luminescence, kanamycin, BacTiterGlo, confirmation (AID 1900); type: functional, organism-based
[6] = target: T1, Heat shock factor protein 1 (Mus musculus, UniProt P38532); assay: inhibition of MG132-induced HSE-luciferase signal, confirmation, cell-based, NIH3T3, luminescence, dose retest (AID 2382); type: functional;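 further: NIH3T3 fibroblasts with HSF1-driven luciferase reporter stressed by proteasome inhibitor MG132; luminescence from HSF1-driven luciferase expression after 8 hours of MG132 stress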
T1 sequence (P38532 whole entry): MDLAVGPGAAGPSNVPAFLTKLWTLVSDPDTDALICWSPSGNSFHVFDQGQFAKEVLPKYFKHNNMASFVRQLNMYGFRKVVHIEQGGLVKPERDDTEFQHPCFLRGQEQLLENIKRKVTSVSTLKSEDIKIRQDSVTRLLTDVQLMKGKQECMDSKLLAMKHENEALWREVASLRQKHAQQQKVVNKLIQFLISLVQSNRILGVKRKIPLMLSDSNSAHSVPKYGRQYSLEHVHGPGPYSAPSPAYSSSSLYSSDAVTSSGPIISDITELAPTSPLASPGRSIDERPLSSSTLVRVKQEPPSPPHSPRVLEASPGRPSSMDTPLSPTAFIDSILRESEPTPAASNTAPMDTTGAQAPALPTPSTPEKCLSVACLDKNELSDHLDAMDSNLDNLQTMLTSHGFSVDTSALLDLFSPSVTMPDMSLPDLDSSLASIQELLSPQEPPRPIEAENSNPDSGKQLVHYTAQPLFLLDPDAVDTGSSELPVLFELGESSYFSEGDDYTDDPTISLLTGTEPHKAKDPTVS

[7] = tested on: H9c2; assay: cells; type: functional, cell-based; settings: Rattus norvegicus, H9c2, Myocardium;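 further: confirmatory concentration-response retest of ultra-high-throughput screening hits for modulation of myocardial damage; cell death induced by hydrogen peroxide oxidative stress; compound pretreatment for 60 min then peroxide exposure for 2 h; potency is for protecting the cells against peroxide damage rather than for killing them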
[8] = cytotoxicity toward NIH3T3 fibroblasts, dose response, counter-screen, cell-based, ATP luminescence, mouse fibroblasts (AID 2010); type: functional;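 further: cells exposed to compound for about 90 hours before reading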
[9] = target: T2, Streptokinase A (Streptococcus pyogenes serotype M1, UniProt P10520); assay: S. pyogenes streptokinase expression inhibitors, potency, dose response, plasminogen activation absorbance, OD405 (AID 1914); type: functional, Streptococcus pyogenes M1 GAS;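 further: secreted streptokinase activity via plasminogen activation per viability signal from cell pellet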
T2 sequence (P10520 whole entry): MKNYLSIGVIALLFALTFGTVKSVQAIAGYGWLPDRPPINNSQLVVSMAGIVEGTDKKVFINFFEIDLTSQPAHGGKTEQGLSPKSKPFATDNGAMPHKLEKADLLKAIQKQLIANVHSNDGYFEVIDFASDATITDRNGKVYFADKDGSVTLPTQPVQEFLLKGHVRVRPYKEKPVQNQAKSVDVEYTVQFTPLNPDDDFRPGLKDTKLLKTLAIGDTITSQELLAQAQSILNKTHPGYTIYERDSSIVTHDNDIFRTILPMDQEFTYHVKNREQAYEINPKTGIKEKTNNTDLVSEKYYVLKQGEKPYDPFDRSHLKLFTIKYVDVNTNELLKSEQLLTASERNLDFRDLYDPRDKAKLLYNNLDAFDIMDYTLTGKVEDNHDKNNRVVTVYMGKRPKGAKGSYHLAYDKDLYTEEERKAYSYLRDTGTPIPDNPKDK

[10] = C. albicans growth with fluconazole, confirmation, fluorescence, retest (AID 2467); type: functional, cell-based
[11] = NIH-3T3 fibroblast cytotoxicity, dose response, cytotoxicity control, cell-based, fluorescence, Alamar Blue, secondary assay (AID 2327); type: functional;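 further: NIH-3T3 mouse fibroblasts cultured with fluconazole at 8 µg/mL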
[12] = target: Glyceraldehyde-3-phosphate dehydrogenase (Homo sapiens, UniProt P04406)
[13] = target: T1, Heat shock factor protein 1; assay: HSF1 potentiators in luciferase reporter cells, confirmation, cell-based, NIH3T3, luminescence, dose retest (AID 435004); type: functional;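 further: stress induced by proteasome inhibitor MG132 added 30 min after compound; luciferase reporter driven by HSF1 response element in NIH3T3 cells; actives raise luminescence as potentiators of the MG132 stress response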
[14] = target: Paired box protein Pax-8 (Homo sapiens, UniProt Q06710); assay: inhibitors of PAX8-driven TPO luciferase reporter, dose response, RMG-I cells, cherry-pick (AID 687027); type: functional, cell-based;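 further: luciferase reporter driven by Pax8 target thyroperoxidase promoter measured by SteadyGlo luminescence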
[15] = control 3'UTR Renilla luciferase suppression, dose response, counter-screen for Shn3 inhibitor project, cell-based, Clone20-Shn3RL, cherry-picked (AID 624133); type: functional
[16] = Shn3 3'UTR reporter inhibitors, dose response, cell-based, Clone20 osteoblasts, firefly luciferase, cherry-picked (AID 624132); type: functional;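 further: firefly luciferase luminescence from reporter carrying the Shn3 3'UTR in osteoblasts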
[17] = target: T3, Rac GTPase-activating protein 1 (Homo sapiens, UniProt Q9H0H5); assay: MgcRacGAP GTPase-activating activity inhibitors, confirmation, biochemical, ADP Hunter fluorescence, primary and confirmatory (AID 624330); type: functional
T3 sequence (Q9H0H5 whole entry): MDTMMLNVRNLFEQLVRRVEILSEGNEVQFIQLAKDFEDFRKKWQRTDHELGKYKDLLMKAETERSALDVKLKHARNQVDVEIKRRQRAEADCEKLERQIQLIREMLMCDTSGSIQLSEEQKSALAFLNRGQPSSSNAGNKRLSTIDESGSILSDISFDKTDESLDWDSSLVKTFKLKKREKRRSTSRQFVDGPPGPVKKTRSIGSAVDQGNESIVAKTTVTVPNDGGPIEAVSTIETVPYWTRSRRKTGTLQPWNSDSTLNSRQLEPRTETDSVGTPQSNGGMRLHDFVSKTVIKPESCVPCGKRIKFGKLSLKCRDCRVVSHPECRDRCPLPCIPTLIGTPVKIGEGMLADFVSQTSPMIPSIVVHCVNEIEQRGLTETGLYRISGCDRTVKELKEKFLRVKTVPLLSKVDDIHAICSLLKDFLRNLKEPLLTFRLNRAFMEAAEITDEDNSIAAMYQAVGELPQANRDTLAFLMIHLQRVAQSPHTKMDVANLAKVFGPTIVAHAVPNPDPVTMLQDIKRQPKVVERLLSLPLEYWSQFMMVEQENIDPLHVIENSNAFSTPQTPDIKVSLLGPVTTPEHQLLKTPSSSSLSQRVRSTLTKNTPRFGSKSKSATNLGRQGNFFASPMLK

Chain of Glyceraldehyde-3-phosphate dehydrogenase (P04406 whole entry): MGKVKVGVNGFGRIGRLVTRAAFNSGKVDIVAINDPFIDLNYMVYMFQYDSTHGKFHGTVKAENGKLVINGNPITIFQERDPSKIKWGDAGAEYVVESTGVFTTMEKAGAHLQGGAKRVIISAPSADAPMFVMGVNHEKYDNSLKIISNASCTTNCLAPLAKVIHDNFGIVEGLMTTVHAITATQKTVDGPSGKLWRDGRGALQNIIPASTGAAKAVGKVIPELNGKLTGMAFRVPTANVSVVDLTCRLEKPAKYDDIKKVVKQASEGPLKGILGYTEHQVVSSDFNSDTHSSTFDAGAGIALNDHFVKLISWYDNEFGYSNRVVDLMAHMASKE
Chain of Paired box protein Pax-8 (Q06710 whole entry): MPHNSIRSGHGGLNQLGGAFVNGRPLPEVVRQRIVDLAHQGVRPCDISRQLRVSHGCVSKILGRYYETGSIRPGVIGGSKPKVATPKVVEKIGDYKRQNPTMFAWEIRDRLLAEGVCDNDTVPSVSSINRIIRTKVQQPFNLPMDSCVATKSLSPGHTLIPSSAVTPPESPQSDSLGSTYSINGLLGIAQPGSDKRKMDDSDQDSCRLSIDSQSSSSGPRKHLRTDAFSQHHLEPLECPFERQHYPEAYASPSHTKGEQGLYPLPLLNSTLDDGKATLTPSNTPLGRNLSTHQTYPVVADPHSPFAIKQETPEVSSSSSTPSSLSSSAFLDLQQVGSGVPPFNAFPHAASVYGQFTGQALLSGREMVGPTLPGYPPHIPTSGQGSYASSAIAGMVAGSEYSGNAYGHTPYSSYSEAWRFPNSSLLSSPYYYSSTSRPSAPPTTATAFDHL
Chain of Large T antigen (P03070 whole entry): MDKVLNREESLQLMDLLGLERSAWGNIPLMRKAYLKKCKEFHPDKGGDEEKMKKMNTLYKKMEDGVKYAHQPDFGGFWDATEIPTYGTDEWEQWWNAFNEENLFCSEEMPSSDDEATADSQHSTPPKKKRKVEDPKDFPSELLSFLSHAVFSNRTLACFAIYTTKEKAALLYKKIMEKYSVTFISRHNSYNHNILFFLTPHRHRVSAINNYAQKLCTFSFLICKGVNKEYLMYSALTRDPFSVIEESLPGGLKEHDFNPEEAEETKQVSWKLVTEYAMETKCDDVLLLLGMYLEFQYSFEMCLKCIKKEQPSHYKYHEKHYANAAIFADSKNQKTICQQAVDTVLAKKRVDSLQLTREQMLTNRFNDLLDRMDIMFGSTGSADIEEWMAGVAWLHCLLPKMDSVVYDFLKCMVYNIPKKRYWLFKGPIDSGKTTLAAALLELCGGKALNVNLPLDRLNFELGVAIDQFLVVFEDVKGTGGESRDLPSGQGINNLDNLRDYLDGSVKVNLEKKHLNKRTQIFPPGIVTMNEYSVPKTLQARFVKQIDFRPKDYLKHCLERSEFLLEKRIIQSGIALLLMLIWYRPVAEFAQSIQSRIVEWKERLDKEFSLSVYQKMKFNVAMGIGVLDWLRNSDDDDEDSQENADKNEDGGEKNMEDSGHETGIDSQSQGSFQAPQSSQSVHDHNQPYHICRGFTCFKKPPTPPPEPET
Chain of FAD-linked sulfhydryl oxidase ALR (P55789 whole entry): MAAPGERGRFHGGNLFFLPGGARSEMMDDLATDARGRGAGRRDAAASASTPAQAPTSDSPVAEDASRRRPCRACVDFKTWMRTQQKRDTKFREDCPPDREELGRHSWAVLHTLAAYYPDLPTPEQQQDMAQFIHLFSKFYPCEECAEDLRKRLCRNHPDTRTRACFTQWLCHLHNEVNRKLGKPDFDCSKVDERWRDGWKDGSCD

With `COc1ccc(-c2cc(=O)oc3c(O)c(O)ccc23)cc1` the AC50 [1] was 1.35 µM (active) and the IC50 [2] was 8.81 µM (active).
With `O=C(COc1ccc(F)cc1Cl)Nc1nc(-c2ccccn2)cs1` the EC50 [3] was 3.29 µM (active), the EC50 [4] was 1.57 µM (active) and the EC50 [5] was 0.751 µM (active). The EC50 [6] was 41.4 µM (active), the IC50 [7] was > 79 µM (inactive) and the EC50 [8] was 3.74 µM (active).
For `O=C(COc1ccc(F)cc1)Nc1nc(-c2ccccn2)cs1`, the EC50 [3] was 16.1 µM (active), the EC50 [9] was > 150 µM (not active) and the EC50 [10] was 2.59 µM (active). The EC50 [5] was 7.19 µM (active), the IC50 [7] was 16.1 µM (active) and the EC50 [11] was > 150 µM (inactive).
For `O=C(O)c1cc(S(=O)(=O)Nc2cccc(Cl)c2)ccc1O`, the IC50 [12] was > 100 µM (not active).
In the case of `NS(=O)(=O)c1ccc(NS(=O)(=O)c2ccc(O)c(C(=O)O)c2)cc1`, the IC50 [12] is reported as > 100 µM (not active).
With `Cc1cc(C)c(C(=O)/C=C/c2cccc3ccccc23)c(O)n1` the EC50 [13] was 6.62 µM (active) and the AC50 [14] was 5.27 µM (active).
For `Cc1cc(C)cc(OCC(=O)Nc2cccc(-c3nnc(-c4ccco4)o3)c2)c1`, the IC50 [7] was 9.22 µM (active).
For `O=C(NCC1CCCO1)C(c1ccc(F)cc1)N(C(=O)Cn1nnc(-c2ccc(F)cc2)n1)c1cccc(O)c1` (configuration not stated), the IC50 [7] was > 79 µM (inactive).
For `Cc1cccc(N2C(=O)C(Cl)=C(N3CCN(Cc4ccc5c(c4)OCO5)CC3)C2=O)c1`, the IC50 [12] was > 50 µM (inconclusive).
With `COC(=O)Oc1ccc(/C=C/C(=O)OC(C)C)cc1OC(=O)OC` the AC50 [15] was 2.56 µM (active), the AC50 [16] was 3.29 µM (active) and the IC50 [7] was > 79 µM (inactive).
With `CC(C)(C)OC(=O)NCCCCCNC(=O)c1[nH]cnc1C(=O)Nc1ccc(Cl)cc1` the IC50 [7] was > 79 µM (inactive).
For `O=C(c1ccc(-c2nc3ccccc3s2)o1)N1CCN(c2ccccc2O)CC1`, the IC50 [7] was > 79 µM (inactive).
For `O=C1C(Cl)=C(N2CCN(CCOCCO)CC2)C(=O)N1c1ccc(Cl)nc1`, the IC50 [12] was > 50 µM (inconclusive).
In the case of `O=Cc1ccc(OCc2cccc(C(F)(F)F)c2)cc1O`, the IC50 [7] is reported as > 79 µM (inactive).
With `Cc1cc(C)cc(N(CCC#N)C(=O)COC(=O)Cn2[nH]c(=O)c3ccccc3c2=O)c1` the IC50 [7] was > 79 µM (inactive).
In the case of `CCCN1CCN(C(=O)CCc2nnc3ccc(N4CCN(c5cccc(OC)c5)CC4)nn23)CC1`, the IC50 [7] is reported as > 79 µM (inactive).
With `Cc1ccc(S(=O)(=O)CCC(=O)OCC(=O)Nc2cc(S(=O)(=O)N3CCOCC3)ccc2C)cc1` the AC50 [15] was 1.76 µM (active) and the AC50 [16] was 17.8 µM (active).
With `COc1cc(OC)cc(C(=O)NNC(=O)CCc2nc(O)c3ccccc3n2)c1` the IC50 [7] was 19.6 µM (active).
With `Nc1ccc2c(c1)nc(O)c1ccccc12` the IC50 [7] was 8.49 µM (active).
In the case of `CC(=O)Nc1cccc(-c2cc(NC=O)c3ncc(-c4cccc(C(C)=O)c4)n3c2)c1`, the IC50 [7] is reported as > 79 µM (inactive).
In the case of `CCN(CC(=O)Nc1c(F)cccc1F)C(=O)CCc1nc(O)c2ccccc2n1`, the IC50 [7] is reported as > 79 µM (inactive).
With `COc1ccc(C=NNc2nc3c(=O)n(C)c(=O)n(C)c3[nH]2)cc1` the IC50 [7] was > 79 µM (inactive).
In the case of `C[C@@H]1CN([C@H](C)CO)S(=O)(=O)c2ccc(C#CC3CCCC3)cc2O[C@@H]1CN(C)C(=O)Cc1ccncc1`, the AC50 [14] is reported as 16.5 µM (active).
In the case of `C[C@@H]1CCCCO[C@@H](CN(C)C(=O)Nc2ccc(C(F)(F)F)cc2)[C@H](C)CN([C@@H](C)CO)C(=O)c2cc(NC(=O)Nc3ccc(C(F)(F)F)cc3)ccc2O1`, the AC50 [14] is reported as 2.31 µM (active).
With `COc1ccc(Cc2nc3ccccc3n2CC(=O)N/N=C/c2ccc(O)cc2)cc1OC` the AC50 [1] was 0.901 µM (active) and the IC50 [2] was > 100 µM (active).
With `COc1cc(/C=N/NC(=O)CNC(=O)c2ccco2)ccc1O` the IC50 [17] was 38.5 µM (active), the AC50 [1] was 3.47 µM (active) and the IC50 [2] was 6.31 µM (active).
With `COc1ccc(F)cc1S(=O)(=O)Nc1cnc2ccccc2c1` the IC50 [12] was > 10 µM (inconclusive).
For `COc1cc2c(OC)c3ccoc3nc2cc1O`, the AC50 [1] was 0.49 µM (active) and the IC50 [2] was 20 µM (active).
